From US20080171783A1, “COMPOSITIONS AND METHODS FOR TREATING HYPERPROLIFERATIVE DISEASE” (Migenix Inc., priority 2006, published 2008)

Target: T1, Calf polymerase alpha (Bos taurus, UniProt A0AAA9TD94)
T1 construct: purchased Replizyme Ltd (Heslington, York, UK)
T1 sequence (A0AAA9TD94 1-1441): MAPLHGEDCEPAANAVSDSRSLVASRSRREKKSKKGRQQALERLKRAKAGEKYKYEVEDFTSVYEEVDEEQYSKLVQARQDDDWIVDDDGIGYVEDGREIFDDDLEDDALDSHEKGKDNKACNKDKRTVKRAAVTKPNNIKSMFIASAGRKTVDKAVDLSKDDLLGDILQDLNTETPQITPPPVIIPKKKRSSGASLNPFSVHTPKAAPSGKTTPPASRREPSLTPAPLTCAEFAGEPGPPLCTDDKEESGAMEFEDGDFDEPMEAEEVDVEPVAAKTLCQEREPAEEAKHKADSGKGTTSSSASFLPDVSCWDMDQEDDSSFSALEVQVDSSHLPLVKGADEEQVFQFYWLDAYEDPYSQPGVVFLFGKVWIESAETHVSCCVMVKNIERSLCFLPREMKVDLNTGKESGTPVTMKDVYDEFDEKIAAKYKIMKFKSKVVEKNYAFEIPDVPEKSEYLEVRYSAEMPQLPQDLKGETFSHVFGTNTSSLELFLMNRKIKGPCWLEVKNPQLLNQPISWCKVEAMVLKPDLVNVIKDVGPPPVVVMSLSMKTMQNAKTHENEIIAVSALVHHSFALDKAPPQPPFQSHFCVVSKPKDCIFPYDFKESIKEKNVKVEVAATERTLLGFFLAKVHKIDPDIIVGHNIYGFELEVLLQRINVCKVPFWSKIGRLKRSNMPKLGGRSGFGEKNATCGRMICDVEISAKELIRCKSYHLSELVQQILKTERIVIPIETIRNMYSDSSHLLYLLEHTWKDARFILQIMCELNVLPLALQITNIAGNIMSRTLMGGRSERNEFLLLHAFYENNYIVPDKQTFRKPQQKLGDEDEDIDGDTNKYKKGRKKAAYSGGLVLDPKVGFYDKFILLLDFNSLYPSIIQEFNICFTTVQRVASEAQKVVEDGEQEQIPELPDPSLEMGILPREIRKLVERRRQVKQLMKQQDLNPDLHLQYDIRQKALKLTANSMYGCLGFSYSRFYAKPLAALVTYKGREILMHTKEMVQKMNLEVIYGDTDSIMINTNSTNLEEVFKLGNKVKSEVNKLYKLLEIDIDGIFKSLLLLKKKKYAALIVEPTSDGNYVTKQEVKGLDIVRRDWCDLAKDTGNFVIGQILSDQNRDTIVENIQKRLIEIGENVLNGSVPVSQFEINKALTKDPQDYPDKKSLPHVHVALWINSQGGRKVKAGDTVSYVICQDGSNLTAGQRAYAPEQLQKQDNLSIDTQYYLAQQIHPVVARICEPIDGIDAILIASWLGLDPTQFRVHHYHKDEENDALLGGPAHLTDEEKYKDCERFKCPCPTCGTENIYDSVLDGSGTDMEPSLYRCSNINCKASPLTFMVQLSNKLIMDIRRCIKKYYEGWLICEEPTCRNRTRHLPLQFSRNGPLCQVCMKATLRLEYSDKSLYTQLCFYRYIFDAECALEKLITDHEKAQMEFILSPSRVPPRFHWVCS
Test: Calf polymerase alpha inhibition (Replizyme kit)
Format: biochemical
Conditions: at 10 μM, single point screening
Procedure: Calf polymerase alpha and human polymerase alpha investigations were performed with a kit available from Replizyme Ltd (Heslington, York, UK).

Structure (SMILES)	inhibition at 10 µM	% Inhibition
NCCCCCCNC(=O)[C@H](Cc1ccccc1)NC(=O)Nc1ccc(OCc2ccccc2)cc1 [Compound 263, (S)—N-(6-AMINO-HEXYL)-2-[3-(4-BENZYLOXY-PHENYL)-UREIDO]-3-PHENYL-PROPIONAMIDE]	31%	
NCCCC[C@H](NC(=O)OCC1c2ccccc2-c2ccccc21)C(=O)NCc1ccccc1 [Compound 21, (S)-(5-AMINO-1-BENZYLCARBAMOYL-PENTYL)-CARBAMIC ACID 9H-FLUOREN-9-YLMETHYL ESTER]	12%	
NCCCC[C@@H](NC(=O)Nc1ccc(-c2ccccc2)cc1)C(=O)Nc1ccc(C2CCCCC2)cc1 [Compound 142, (R)-6-AMINO-2-(3-BIPHENYL-4-YL-UREIDO)-HEXANOIC ACID (4-CYCLOHEXYL-PHENYL)-AMIDE]	103%	
Cc1ccc(NC(=O)[C@H](CCCCN)NC(=O)Nc2cccc(-c3ccccc3)c2)cc1 [Compound 127, (S)-6-AMINO-2-(3-BIPHENYL-3-YL-UREIDO)-HEXANOIC ACID P-TOLYLAMIDE]		45%
Cc1ccc(NC(=O)[C@H](CCCCN)NC(=O)Nc2ccc(CCc3ccccc3)cc2)cc1 [Compound 243, (S)-6-AMINO-2-[3-(4-PHENETHYL-PHENYL)-UREIDO]-HEXANOIC ACID P-TOLYLAMIDE]		0%
Cc1ccc(N(C)C(=O)[C@H](CCCCN)NC(=O)OCC2c3ccccc3-c3ccccc32)cc1 [Compound 92, (S)-[5-AMINO-1-(METHYL-P-TOLYL-CARBAMOYL)-PENTYL]-CARBAMIC ACID 9H-FLUOREN-9-YLMETHYL ESTER]		56.5%
NCCCC[C@@H](NC(=O)Nc1ccc(OCc2ccccc2)cc1)C(=O)Nc1ccc(C2CCCCC2)cc1 [Compound 166, (R)-6-AMINO-2-[3-(4-BENZYLOXY-PHENYL)-UREIDO]-HEXANOIC ACID (4-CYCLOHEXYL-PHENYL)-AMIDE]	102%	
Cc1ccc(NC(=O)C(CCCCN)NC(=O)OCC2c3ccccc3-c3ccccc32)cn1 (stereo not drawn) [Compound 294, [5-AMINO-1-(6-METHYL-PYRIDIN-3-YLCARBAMOYL)-PENTYL]-CARBAMIC ACID 9H-FLUOREN-9-YLMETHYL ESTER]	19%	
Cc1ccc(NC(=O)[C@H](CCCCN)NC(=O)Nc2ccc(-c3ccccc3)cc2)cc1 [Compound 40, (S)-6-AMINO-2-(3-BIPHENYL-4-YL-UREIDO)-HEXANOIC ACID P-TOLYLAMIDE]		95%
NCCCCC[C@H](NC(=O)Nc1ccc(OCc2ccccc2)cc1)C(=O)Nc1ccc(C2CCCCC2)cc1 [Compound 121, (S)-7-AMINO-2-[3-(4-BENZYLOXY-PHENYL)-UREIDO]-HEPTANOIC ACID (4-CYCLOHEXYL-PHENYL)-AMIDE]	102%	
Cc1ccc(NC(=O)[C@@H](N)CCCCN)cc1 [Compound 114, (S)-2,6-DIAMINO-HEXANOIC ACID P-TOLYLAMIDE]		17%
Cc1ccc(NC(=O)[C@H](CCN)NC(=O)OCC2c3ccccc3-c3ccccc32)cc1 [Compound 108, (S)-(3-AMINO-1-P-TOLYLCARBAMOYL-PROPYL)-CARBAMIC ACID 9H-FLUOREN-9-YLMETHYL ESTER]		84%
Cc1ccc(NC(=O)[C@H](Cc2ccc(CN)cc2)NC(=O)Nc2ccc(-c3ccccc3)cc2)cc1 [Compound 145, (S)-3-(4-AMINOMETHYL-PHENYL)-2-(3-BIPHENYL-4-YL-UREIDO)-N-P-TOLYL-PROPIONAMIDE]		102%
Cc1ccc(NC(=O)[C@H](CCCCN)NC(=O)Nc2ccc(OCc3ccc(F)cc3)cc2)cc1 [Compound 250, (S)-6-AMINO-2-{3-[4-(4-FLUORO-BENZYLOXY)-PHENYL]-UREIDO}-HEXANOIC ACID P-TOLYLAMIDE]		57%
Cc1ccc(NC(=O)[C@H](CCCCN)NC(=O)CC2c3ccccc3-c3ccccc32)cc1 [Compound 53, (S)-6-AMINO-2-(2-9H-FLUOREN-9-YL-ACETYLAMINO)-HEXANOIC ACID P-TOLYLAMIDE]		22%
